Experimental findings from US12344610B2, “APOL1 inhibitors and methods of use” (Maze Therapeutics, Inc., priority 2022, dated 2025) are described below.

Usually EC50 stands for the concentration at which the effect is half-maximal. A higher EC50 goes with lower potency in that assay.

The first test has as its system human immortalized podocytes inducibly expressing APOL1 G2. Nature of the test: APOL1 G2 podocyte cell rescue assay (Example B4). In kind it is cell-based. To be noted: Homo sapiens, differentiated human podocytes, doxycycline-induced APOL1 G2, CellTiter-Glo; geometric mean of at least 2 runs; † = single run. The procedure:
APOL1 G2 human immortalized podocyte viability assay for measurement of cytotoxicity reversal by compound (APOL1 G2 podocyte cell rescue assay).
Cell Handling. The hTERT-immortalized kidney podocyte cell line was procured from the laboratory of Dr. Moin Saleem at the University of Bristol, UK (Nephrology 17 (2012) 525-531; doi:10.1111/j.1440-1797.2012.01619.x; herein incorporated by reference in its entirety). Parental and engineered cell lines were cultured in RPMI 1640 media (Gibco, 11875093) with 10% Tet System Approved FBS (Takara, 631101). The engineered cell line was maintained under selection (2.5 μg/mL puromycin). Cell lines were maintained and engineered at 33° C. Cell cultures were transferred to 37° C. for 10 to 14 days to initiate differentiation (Nephrology 17 (2012) 525-531; doi:10.1111/j.1440-1797.2012.01619.x; herein incorporated by reference in its entirety). During this time, media was refreshed every 3 days. After differentiation, cells engineered to inducibly express APOL1 G2 were used in the podocyte cell rescue assay.
Cell Line Engineering. The APOL1 G2 coding sequence was cloned into the pLVX-TetOne-Puro vector and verified by sequencing (Genscript Biotech). This construct was designed to have a C-terminal HiBiT tag. Lentiviral packaging of the vector was conducted using the Lenti-X Packaging Single Shots (VSVG) system according to manufacturer instructions (Takara Bio, 631275). A stable cell line was generated by transfecting the parental podocyte cell line with the concentrated virus in media with 5 μg/mL polybrene (Sigma, TR-1003-G). Media was changed the following day. 72 hours post transfection, 2.5 μg/mL puromycin (Gibco, A1113803) was added to the cells and cells were maintained in selection media thereafter. This APOL1 G2 stable cellular pool was subjected to a stringent limiting dilution to generate a pure stable clone (Podocyte/pLVX-TetOne APOL1 G2/clone D10) capable of inducible expression of APOL1 G2.
Assay Setup. T175 flasks containing differentiated podocytes engineered to inducibly express APOL1 G2 (Podocyte/pLVX-TetOne APOL1 G2/clone D10) were washed once with 15 mL of DPBS (Thermo Fisher, 14190-144). These flasks were each trypsinized with 3 mL of prewarmed TrypLE Express (Gibco, 12605-010) and incubated at 37° C. with 5% CO2 until cells detached and neutralized with 7 mL of prewarmed assay media (RPMI 1640 media with 10% Tet System Approved FBS, no selection agent). Cells were pooled and the resulting suspension was gently mixed. The cell suspension was counted using a Countess Cell Counting Chamber (Invitrogen) and the cell concentration was adjusted to 240,000 cells/mL using assay media. Next, 25 μL of a 480 ng/mL working stock of doxycycline diluted in assay media was added to an assay ready plate. All experiments were performed in 384-well, white, solid bottom, tissue culture treated plates (Greiner, 781080). The assay ready compound plates were generated with duplicate 8-point compound dilution series that consisted of 3-fold stepwise dilutions (0.4% DMSO final). The plates were centrifuged at 1000 rpm for 1 minute. 25 μL of diluted cell suspension (final cell density=6,000 cells/well) was added to each well. The plates were centrifuged again at 1000 rpm for 1 minute and then incubated in a humidified incubator (37° C. with 5% CO2). After 95 hours, the assay plates were removed from the incubator and allowed to equilibrate to room temperature for 1 hour. CellTiter-Glo® reagent (Promega, G7570) was prepared according to the manufacturer's instructions. 25 μL of CellTiter-Glo® reagent was added to each well. Assay plates were sealed with foil and mixed for 5 minutes on an orbital shaker (500 rpm) to induce cell lysis. Plates were centrifuged at 1000 rpm for 1 minute. 10 minutes after CellTiter-Glo® reagent addition, an Envision plate reader (Perkin Elmer) was used to measure the luminescent signal of each assay plate. Collaborative Drug Discovery software was utilized for graphing data. […]
Background: ATP-based viability assays read luminescence as a measure of living cells.
In turn, `CC(O)c1ncc(OCCN2CCC3(CC2)C(=O)Nc2ccc(C(F)F)cc23)cc1C(F)(F)F` (single isomer, unassigned) [Compound 287, 5-(difluoromethyl)-1′-[2-({6-[(1S) or (1R)-1-hydroxyethyl]-5-(trifluoromethyl)pyridin-3-yl}oxy)ethyl]-1,2-dihydrospiro[indole-3,4′-piperidin]-2-one] gave a concentration giving a half-maximal response (EC50) of 17.7 nM.
Same read-out and setting: the figure for `CC[C@]1(O)C[C@H](N2C(=O)CCc3cc(OCCN4CCC5(CC4)C(=O)Nc4ccc(Cl)cc45)cnc32)C1` (single isomer, unassigned) [Compound 290, 5-chloro-1′-[2-({7-oxo-8-[(trans)-3-ethyl-3-hydroxycyclobutyl]-5,6,7,8-tetrahydro-1,8-naphthyridin-3-yl}oxy)ethyl]-1,2-dihydrospiro[indole-3,4′-piperidin]-2-one] is 2.76 nM; for `C[C@]1(O)C[C@H](N2C(=O)CCc3cc(OCCN4CCC5(CC4)C(=O)Nc4ccc(Cl)cc45)cnc32)C1` (single isomer, unassigned) [Compound 307, 5-chloro-1′-[2-({7-oxo-8-[(trans)-3-hydroxy-3-methylcyclobutyl]-5,6,7,8-tetrahydro-1,8-naphthyridin-3-yl}oxy)ethyl]-1,2-dihydrospiro[indole-3,4′-piperidin]-2-one] it is 2.61 nM; for `CS(=O)(=O)c1ccc(OCCN2CCC3(CC2)C(=O)N(CCO)c2ccc(Br)cc23)cc1` [Compound 24, 5-bromo-1-(2-hydroxyethyl)-1′-[2-(4-methanesulfonylphenoxy)ethyl]-1,2-dihydrospiro[indole-3,4′-piperidin]-2-one] it is 37.4 nM.
On the same count and under the same terms, as for `O=C(c1ccc(OCCN2CCC3(CC2)C(=O)Nc2ccc(Cl)cc23)cc1F)N1CCS(=O)(=O)CC1` [Compound 232, 4-[4-(2-{5-chloro-2-oxo-1,2-dihydrospiro[indole-3,4′-piperidin]-1′-yl}ethoxy)-2-fluorobenzoyl]-1λ^6-thiomorpholine-1,1-dione], the figure is 2.17 nM; as for `CS(=O)(=O)C1CN(C(=O)c2ccc(OCCN3CCC4(CC3)C(=O)Nc3ccc(Cl)cc34)cc2F)C1` [Compound 233, 5-chloro-1′-{2-[3-fluoro-4-(3-methanesulfonyl-azetidine-1-carbonyl)phenoxy]ethyl}-1,2-dihydrospiro[indole-3,4′-piperidin]-2-one], 4.25 nM; as for `O=C(c1ccc(OCCN2CCC3(CC2)C(=O)Nc2ccc(Cl)cc23)cc1F)N1CC2(C1)CS(=O)(=O)C2` [Compound 239, 6-[4-(2-{5-chloro-2-oxo-1,2-dihydrospiro[indole-3,4′-piperidin]-1′-yl}ethoxy)-2-fluorobenzoyl]-2λ^6-thia-6-azaspiro[3.3]heptane-2,2-dione], 2.1 nM.
The same measure, in the same setting: as for `O=C(c1c(F)cc(OCCN2CCC3(CC2)C(=O)Nc2ccc(Cl)cc23)cc1F)N1CCS(=O)(=O)CC1` [Compound 259, 4-[4-(2-{5-chloro-2-oxo-1,2-dihydrospiro[indole-3,4′-piperidin]-1′-yl}ethoxy)-2,6-difluorobenzoyl]-1λ^6-thiomorpholine-1,1-dione], the figure is 1.21 nM.
Regarding `CN1C(=O)C2(CCN(CCOc3cc(F)c(C(=O)N4CCS(=O)(=O)CC4)c(F)c3)CC2)c2cc(C#N)ccc21` [Compound 260, 1′-{2-[4-(1,1-dioxo-1λ^6-thiomorpholine-4-carbonyl)-3,5-difluorophenoxy]ethyl}-1-methyl-2-oxo-1,2-dihydrospiro[indole-3,4′-piperidine]-5-carbonitrile], the EC50 was determined as 10.3 nM.
The molecule `CN1C(=O)C2(CCN(CCOc3ccc(C(=O)N4CCS(=O)(=O)CC4)c(C(F)(F)F)c3)CC2)c2cc(C#N)ccc21` [Compound 261, 1′-{2-[4-(1,1-dioxo-1λ^6-thiomorpholine-4-carbonyl)-3-(trifluoromethyl)phenoxy]ethyl}-1-methyl-2-oxo-1,2-dihydrospiro[indole-3,4′-piperidine]-5-carbonitrile] gave an EC50 of 2.29 nM.
As to `O=C(c1ccc(OCCN2CCC3(CC2)C(=O)Nc2ccc(Cl)cc23)cc1C(F)(F)F)N1CCS(=O)(=O)CC1` [Compound 272, 4-[4-(2-{5-chloro-2-oxo-1,2-dihydrospiro[indole-3,4′-piperidin]-1′-yl}ethoxy)-2-(trifluoromethyl)benzoyl]-1λ^6-thiomorpholine-1,1-dione], the half-maximal effective concentration (EC50) came out at 1 nM.
For the molecule `CS(=O)(=O)N1CC2(CN(C(=O)c3ccc(OCCN4CCC5(CC4)C(=O)Nc4ccc(Cl)cc45)cc3F)C2)C1` [Compound 273, 5-chloro-1′-[2-(3-fluoro-4-{6-methanesulfonyl-2,6-diazaspiro[3.3]heptane-2-carbonyl}phenoxy)ethyl]-1,2-dihydrospiro[indole-3,4′-piperidin]-2-one], the midpoint of the response, the EC50, lay at 5.2 nM.
Same read-out and setting: the figure for `C[C@]1(O)C[C@@H](N2C(=O)CCc3cc(OCCN4CCC5(CC4)C(=O)Nc4ccc(C(F)F)cc45)cnc32)C1` [Compound 274, 5-(difluoromethyl)-1′-[2-({7-oxo-8-[(cis)-3-hydroxy-3-methylcyclobutyl]-5,6,7,8-tetrahydro-1,8-naphthyridin-3-yl}oxy)ethyl]-1,2-dihydrospiro[indole-3,4′-piperidin]-2-one] is 18.8 nM.
Molecule `C[C@]1(O)C[C@@H](N2C(=O)CCc3cc(OCCN4CCC5(CC4)C(=O)Nc4ccc(Cl)cc45)cnc32)C1` [Compound 275, 5-chloro-1′-[2-({7-oxo-8-[(cis)-3-hydroxy-3-methylcyclobutyl]-5,6,7,8-tetrahydro-1,8-naphthyridin-3-yl}oxy)ethyl]-1,2-dihydrospiro[indole-3,4′-piperidin]-2-one] returned a concentration giving a half-maximal response (EC50) of 3.89 nM.
Still for that read-out and setting: the figure for `CS(=O)(=O)C1(c2ncc(OCCN3CCC4(CC3)C(=O)Nc3ccc(Cl)cc34)cn2)COC1` [Compound 276, 5-chloro-1′-(2-{[2-(3-methanesulfonyloxetan-3-yl)pyrimidin-5-yl]oxy}ethyl)-1,2-dihydrospiro[indole-3,4′-piperidin]-2-one] is 10.4 nM.
`CS(=O)(=O)C1(c2ncc(OCCN3CCC4(CC3)C(=O)Nc3ccc(C#N)cc34)cc2F)CC1` [Compound 283, 1′-(2-{[5-fluoro-6-(1-methanesulfonylcyclopropyl)pyridin-3-yl]oxy}ethyl)-2-oxo-1,2-dihydrospiro[indole-3,4′-piperidine]-5-carbonitrile] showed an EC50 of 5.08 nM.
For the molecule `CC(O)c1ncc(OCCN2CCC3(CC2)C(=O)Nc2ccc(Cl)cc23)cn1` (stereo not shown) [Compound 284, 5-chloro-1′-(2-{[2-(1-hydroxyethyl)pyrimidin-5-yl]oxy}ethyl)-1,2-dihydrospiro[indole-3,4′-piperidin]-2-one], the midpoint of the response, the EC50, lay at 105 nM.
On the same count and under the same terms, as for `C[C@]1(O)C[C@@H](N2C(=O)OCc3cc(OCCN4CCC5(CC4)C(=O)Nc4ccc(Cl)cc45)cnc32)C1` [Compound 289, 5-chloro-1′-[2-({2-oxo-1-[(cis)-3-hydroxy-3-methylcyclobutyl]-1H,2H,4H-pyrido[2,3-d][1,3]oxazin-6-yl]oxy)ethyl]-1,2-dihydrospiro[indole-3,4′-piperidin]-2-one], the figure is 2.22 nM.

The same test, now with this note: differentiated human podocytes, doxycycline-induced APOL1 G2, CellTiter-Glo; geometric mean of at least 2 runs; † = single run.
Molecule `CC(O)c1ncc(OCCN2CCC3(CC2)C(=O)Nc2ccc(C(F)F)cc23)cc1C(F)(F)F` (single isomer, unassigned) [Compound 288, 5-(difluoromethyl)-1′-[2-({6-[(1R) or (1S)-1-hydroxyethyl]-5-(trifluoromethyl)pyridin-3-yl}oxy)ethyl]-1,2-dihydrospiro[indole-3,4′-piperidin]-2-one] displayed an EC50 of 19.5 nM.
